Experimental data from patent publication US20240209371A1, “COMPOSITIONS AND METHODS FOR TREATING CANCER” (Dana-Farber Cancer Institute, Inc., priority 2021, published 2024).

Tests used:
Type in all cases: cell-based
[1] = tested on: Q61 mutant cells; assay: Exon skipping by PS+2′MOE antisense oligos in Q61 mutant cells; details: in vitro
Experimental: RNA was extracted using the RNeasy Mini kit (Qiagen) and cDNA was synthesized using the QuantiTect Reverse Transcription Kit (Qiagen). Isoforms were amplified using gene-specific-primers (FIG. 24) and amplicons were resolved on a 2% agarose gel. Isoforms were characterized by Sanger sequencing.
RAS mutant cell lines in culture media were treated in suspension with indicated concentrations of morpholino and 3-6 μM endo-porter (Gene Tools). Duration of treatment was 2 days for RNA experiments, 3 days for western blot, and 8 days for growth-inhibition assay based on previously published treatment protocols with KRAS selective inhibitors against RAS mutant cells^4. In all experiments using full PS+2′MOE antisense oligos, medium was enriched with Ca^2+. Ca^2+ enrichment of medium potentiates the in vitro activity of multiple types of oligonucleotides and is more reflective of in vivo conditions than conventional transfection methods^42. Duration of treatment was 2 days for RNA experiments, 6 days for western blot, and 8 days for growth-inhibition assay.

[2] = tested on: mutant KRAS pre-mRNA; assay: NGS of remaining full-length KRAS transcript in SW948 cells; details: dose dependent, decreased from 44%
Source text: The use of mutant selective antisense oligos can be used to induce aberrant splicing only in tumor cells, but not in normal cells lacking the Q61 mutation, minimizing off target toxicity (FIG. 4 panel a). Using this approach, we induced skipping of whole exon 3 in the KRAS GQ60GK lung cancer CALU6 cell line, in a dose dependent manner (FIG. 4 panel b). […] To assess the selectivity of the morpholino for the KRAS mutant over wild type transcript, the identity of the full-length pre-mRNA contributing to the exon 3 spliced mRNA following morpholino treatment needed to be determined. […] We PCR-amplified KRAS cDNA generated from morpholino treated SW948 cells, separated it by gel electrophoresis and analyzed by NGS the remaining full-length transcript, in order to obtain the ratio of mutant versus wild type KRAS pre-mRNA targeted by the morpholino. […] We next evaluated the effect of these oligos on cell growth. As not all RAS mutant cell lines are dependent on RAS signaling for their growth^28, we determined RAS dependency of each of the Q61 mutant cell lines using KRAS, NRAS or HRAS specific siRNAs, and compared our findings to published gene effect scores for dependency by RNAi and CRISPR knock out obtained from Depmap (depmap.org) (FIG. 4 panel e). […] We also evaluated MEK inhibitor sensitivity in a panel of these cell lines using trametinib (FIG. 10 panel b). […]

[3] = tested on: RAS-GTP; assay: RAS-GTP assay in KRAS expressing PC9 cell lines
Experimental: (§1) Cells were lysed with RIPA buffer (Boston Bioproducts) supplemented with complete Mini EDTA-free Protease inhibitor cocktail (Roche) and PhoSTOP phosphatase inhibitor cocktail (Roche). The total cell lysate (20 ug) was subjected to SDS polyacrylamide gel electrophoresis and transferred to Immobilon-P polyvinylidene difluoride membranes (Bio-Rad Laboratories). Antibodies are listed in supplementary table 10. RAS-GTP was evaluated using the Active Ras Detection Kit (#8821, Cell Signaling Technology). Cells were cultured with media containing 0.1% FBS with or without 1 μM osimertinib for 24 hours, and 80 ug of GST-Raf1-RBD and 500 ug of protein lysates were used according to the manufacturer's instructions.

[4] = tested on: CRISPR-modified PC9 cell lines; assay: Cell viability assay of parental or CRISPR-modified PC9 cells with osimertinib
Experimental: Parental or CRISPR-modified PC9 cell lines (1×10^3 cells) were plated in 384-well plates. After 24 hours, cells were treated with drugs at the indicated concentrations for 72 hours. Endpoint cell viability assays were performed using Cell Titer Glo (Promega). RAS mutant cell lines (2×10^3 cells) were seeded in 384 ultra-low attachment plates as suspension cells and evaluated using 3D-Cell Titer Glo (Promega). RAS mutant cells were treated with trametinib for 3 days and with antisense oligos or siRNA for 8 days.

[5] = tested on: ERK1/2; assay: Western blot after osimertinib treatment in PC9 cells
Experimental: as §1

Compound: PS+MOE 1-3: 20nt PS+2′MOE antisense oligo; 1-3 sequence 5′-ACTCCTCTTTGCCTGCTGTG-3′ (all 2'-MOE, all phosphorothioate, methylation of C not given here)
- mutant selective exon skipping compared with morpholino oligos [1]: mutant selective skipping at a much lower concentration

Compound: mor-4: morpholino targeting KRAS Q61L; M4 / mor-4-4 sequence 5′-GTACTCCTCTAGACCTGCTGTGTCG-3′ (all phosphorodiamidate morpholino (PMO))
- fraction of mutant KRAS pre-mRNA within the full-length transcript species [2]: 22%

Compound: C=CC(=O)Nc1cc(Nc2nccc(-c3cn(C)c4ccccc34)n2)c(OC)cc1N(C)CCN(C)C [osimertinib]
- RAS-GTP levels after osimertinib, KRAS GQ60GK ([3]; PC9 KRAS GQ60GK): minimally affected
- RAS-GTP after osimertinib, KRAS Q61K single mutant or KRAS wild type parental PC9 ([3]; PC9 Q61K or parental): decrease in RAS-GTP
- effect of osimertinib on KRAS G12C, G12D, A146T, or BRAF V600E clones ([4]; 1 μM osimertinib): largely unaffected
- osimertinib sensitivity of PC9 with heterozygous KRAS GQ60GK or Q61H ([4]; heterozygous mutations): resistance
- osimertinib sensitivity of PC9 clones harboring KRAS Q61K without silent mutation ([4]; single-cell clones): growth inhibition comparable to that of parental PC9 cells
- ERK1/2 activation following osimertinib, KRAS GQ60GK c.180_181 delinsAA cells ([5]; PC9 KRAS GQ60GK): persistent ERK1/2 activation
- ERK1/2 activation following osimertinib, KRAS Q61K alone cells ([5]; PC9 KRAS Q61K alone): not in cells expressing KRAS Q61K alone
